According to US10543183B2, “Treatment and diagnosis of melanoma” (The Rockefeller University, priority 2012, dated 2020):
Counter-ions that a name gives are not always drawn.

Assays:
[1] = tested on: ApoE expression in human melanoma cells; assay: ApoE mRNA expression by qRT-PCR in melanoma cells; type: cell-based
Procedure: (§1) Total RNA was extracted from various cell lines using the miRvana kit (AM1560, Applied Biosystems, Austin, Tex.). The expression levels of mature miRNAs were quantified using the Taqman miRNA expression assay (4427975-0002228, Applied Biosystems). RNU44 was used as an endogenous control for normalization. For mRNA expression analyses, 600 ng of total RNA was reverse transcribed using the cDNA First-Strand Synthesis Kit (18080-051, Invitrogen), and roughly 200 ng of the resulting cDNA was then mixed with SYBR green PCR Master Mix (4309155, Applied Biosystems) and the appropriate primers. Each reaction was performed in quadruplicate, and mRNA expression was quantified by performing real-time PCR amplification using an ABI Prism 7900HT Real-Time PCR System (Applied Biosystems). GAPDH was used as an endogenous control for normalization. The following primers were used: […]
RNA was extracted from whole cell lysates using the Total RNA Purification Kit (17200, Norgen, Thorold, Canada). 600 ng of total RNA was then reverse transcribed into cDNA using the cDNA First-Strand Synthesis Kit (18080-051, Invitrogen), and quantitative real-time PCR amplification was performed as previously described (Pencheva et al., 2012) using an ABI Prism 7900HT Real-Time PCR System (Applied Biosystems, Austin, Tex.). Each PCR reaction was carried out in quadruplicates. Gene expression was normalized to GAPDH, which was used as an endogenous control.
For every sample, 600 ng of RNA was reverse transcribed into cDNA using the cDNA First-Strand Synthesis kit (Invitrogen). Approximately 200 ng of cDNA was mixed with SYBR® green PCR Master Mix and the corresponding forward and reverse primers specific for detection of human ApoE. Each reaction was carried out in quadruplicates, and ApoE mRNA expression levels were measured by quantitative real-time PCR amplification using an ABI Prism 7900HT Real-Time PCR System (Applied Biosystems). The relative ApoE expression was determined using the ΔΔCt method. GAPDH was used as an endogenous control for normalization purposes.

[2] = tested on: B16F10 mouse melanoma cells; assay: subcutaneous B16F10 tumor growth in mice; type: in vivo; conditions: for primary tumor growth in vivo (FIG. 21): mouse; for suppression of tumor growth by B16F10 cells: 20 mg/kg, tumors 5-10 mm3 at start, immunocompetent mice
[3] = tested on: DNAJA4 expression in MeWo cells; assay: DNAJA4 mRNA expression by qRT-PCR in melanoma cells; type: cell-based, human; conditions: parental MeWo cells, 48 hours
Procedure: as §1

[4] = tested on: MeWo human melanoma tumors; assay: tumor histochemistry (MECA-32, Ki-67, cleaved caspase-3); type: in vivo, mouse
Description: Animals were intracardially perfused with PBS followed by 4% paraformaldehyde (PFA). Fixed lungs were embedded in paraffin and sectioned into 5-μm-thick increments. Macroscopic lung metastatic nodules were visualized by H&E staining. For analysis of tumor endothelial cell content, proliferation, and apoptosis, primary tumor paraffin-embedded sections were stained with antibodies against MECA-32 (Developmental Studies Hybridoma Bank, University of Iowa), KI-67 (ab15580, Abcam), and cleaved caspase-3 (9661, Cell Signaling), respectively.
Tumors were excised from mice and fixed in 4% paraformaldehyde at 4° C. for 48 hours. Then, tumors were paraffin-embedded and sectioned into 5-μm-thick increments. For endothelial cell content analysis in tumors, tumor sections were stained with a primary antibody against the mouse endothelial cell marker MECA-32 (Developmental Studies Hybridoma Bank, The University of Iowa, IA) and counterstained with DAPI nuclear stain. To determine tumor cell proliferation and apoptosis, tumor sections were stained with antibodies against the proliferative marker Ki-67 (Abcam, ab15580, Cambridge, Mass.) and the apoptotic marker cleaved caspase-3 (9661, Cell Signaling, Danvers, Mass.), respectively. Various Alexa Flour dye-conjugated secondary antibodies were used to detect primary antibodies. […] Endothelial cell content density and tumor proliferation rate were quantified by calculating the average percentage of MECA-32 or Ki-67 positively-staining area out of the total tumor area. Tumor apoptosis was measured by counting the number of cleaved caspase-3 expressing cells per given tumor area.

[5] = tested on: breast, renal, pancreatic and lung cancer cell lines; assay: trans-well matrigel invasion assay, other cancer types; type: cell-based, human
Procedure: The ability of cancer cells to invade through matrigel in vitro was tested by using a trans-cell matrigel invasion chamber system (354480, BD Biosciences). Various cancer cell lines were serum-starved overnight in media containing 0.2% FBS. The following day, invasion chambers were pre-equilibrated prior to the assay by adding 0.5 mL of starvation media to the top and bottom wells. Meanwhile, cancer cells were trypsinized and viable cells were counted using the trypan blue dead cell exclusion dye. Cancer cells were then resuspended at a concentration of 1×10^5 cells/1 mL starvation media, and 0.5 mL of cell suspension, containing 5×10^4 cells, was seeded into each trans-well. […] The basal side of each insert was imaged using an inverted fluorescence microscope (Zeiss Axiovert 40 CFL) at 5× magnification, and the number of DAPI-positive cells was quantified using ImageJ.
The cells were serum starved for 16 hours in 0.2% FBS media in the presence of DMSO or GW3965. […] Meanwhile, cancer cells were trypsinized and viable cells were counted using trypan blue. […] The basal side of each insert was imaged using an inverted fluorescence microscope (Zeiss Axiovert 40 CFL) at 5× magnification, and the number of DAPI-positive cells was quantified using ImageJ.

[6] = tested on: MDA-468 human breast cancer cells; assay: MDA-468 breast cancer tumor growth in mammary fat pads; type: in vivo, mouse; conditions: diet 75 mg/kg/day
Procedure: The mice were assigned to a control diet treatment or a GW3965-supplemented diet treatment (75 mg/kg/day) two days prior to injection of the cancer cells.

O=S(=O)(c1ccccc1)N(CC(F)(F)F)c1ccc(C(O)(C(F)(F)F)C(F)(F)F)cc1 [T0901317 1]
potency of ApoE expression induction in vitro [1]: potently induce
primary tumor growth in vivo (FIG. 21) [2]: inhibit
suppression of tumor growth by B16F10 cells ([2]; oral): 61%

O=C(O)Cc1cccc(OCCCN(Cc2cccc(C(F)(F)F)c2Cl)CC(c2ccccc2)c2ccccc2)c1 [GW3965 2, 3-[3-[N-(2-Chloro-3-trifluoromethylbenzyl)-(2,2-diphenylethyl)amino]propyloxy] phenylacetic acid hydrochloride]
potency of ApoE expression induction in vitro [1]: potently induce
expression of ApoE ([1]; parental MeWo cells, 48 hours): increased expression
expression of DNAJA4 [3]: increased expression
decrease in number of actively proliferating tumor cells in vivo ([4]; Ki-67): 23%
number of apoptotic cells ([4]; cleaved caspase-3): without a change
reduction in endothelial cell content of tumors ([4]; diet 20 mg/kg, 35 days, MECA-32): roughly 2 fold
tumor cell invasion of renal, pancreatic and lung cancer cells ([5]; RCC, PANC1, H460 cells, 1 μM for 72 hours): inhibition
breast cancer tumor size in vivo [6]: significant reduction
suppression of tumor growth in mice genetically inactivated for ApoE ([2]; ApoE−/− mice, diet 20 mg/kg): completely ineffective
tumor growth inhibition upon LXRα inactivation ([2]; LXRα−/− mice, diet 20 mg/kg): had no effect
ability to suppress melanoma tumor growth upon genetic ablation of systemic LXRβ ([2]; LXRβ−/− mice, diet 20 mg/kg): blocked
primary tumor growth in vivo (FIG. 21) [2]: inhibit
suppression of tumor growth by B16F10 cells ([2]; oral): 67%
reduction in tumor growth by B16F10 cells ([2]; oral, 100 mg/kg): 80%
reduction in growth of established large B16F10 tumors ([2]; tumors ~150 mm3 at start, chow 150 mg/kg): roughly 50%

recombinant ApoE3: recombinant human ApoE3 (4696, BioVision)
tumor cell invasion across breast, renal cell and pancreatic cancer ([5]; 100 μg/mL at start of assay): inhibited
